Patent US20180353501A1 (Arvinas, Inc., priority 2017, published 2018)

Molecular target: T1, FLAG-p38δ (Homo sapiens, UniProt O15264)
T1 construct: expressed in transfected cells; host or cells: HeLa cells, transient transfection with Lipofectamine 2000
T1 sequence (O15264 1-365): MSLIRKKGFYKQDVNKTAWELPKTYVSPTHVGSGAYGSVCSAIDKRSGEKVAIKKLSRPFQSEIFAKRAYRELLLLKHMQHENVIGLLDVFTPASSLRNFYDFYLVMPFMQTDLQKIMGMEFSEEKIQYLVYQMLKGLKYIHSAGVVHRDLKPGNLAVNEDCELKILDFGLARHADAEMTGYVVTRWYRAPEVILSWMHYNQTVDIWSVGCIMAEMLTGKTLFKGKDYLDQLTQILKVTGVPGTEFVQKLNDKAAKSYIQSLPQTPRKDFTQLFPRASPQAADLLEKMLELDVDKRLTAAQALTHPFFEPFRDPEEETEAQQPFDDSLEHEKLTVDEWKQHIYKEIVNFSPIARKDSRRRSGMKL
Test: TUBE1 immunoprecipitation of polyubiquitinated p38δ, HeLa cells
Assay type: cell-based
Settings: 1 μM, 3 hours
Protocol: FIG. 18. Exemplary compound 46 induces polyubiquitination of p38δ. (A) HeLa cells were co-transfected with HA-Ub and FLAG p38δ and treated with vehicle (DMSO), 1 μM of compound 50, or 1 μM of compound 46 for 3 hours. Lysates were immunoprecipitated with tandem ubiquitin binding entity (TUBE1) agarose beads and assessed by western blots detecting FLAG (p38δ). TUBE1 binds tetra ubiquitin chains with high affinity, thereby enriching for polyubiquitinated proteins. In this assay, HA (Ub) serves as an immunoprecipitation control for poly-Ub TUBE1 enrichment.
Based on these exemplary compound 50-induced and exemplary compound 46-induced ternary complex affinity differences, both in vitro and in cells, whether they were predictive of PROTAC-induced p38δ cellular ubiquitination was examined.
TUBE1 immunoprecipitation experiments were carried out exactly as described above, except for the fact that 1 mg of normalized HeLa lysate was loaded onto 20 μL TUBE1 agarose (LifeSensors) resin per sample.

## COc1cc2c(Oc3ccc(NC(=O)C4(C(=O)Nc5ccc(F)cc5)CC4)cc3F)ccnc2cc1OCCOCCOCCOc1cc(-c2scnc2C)ccc1CNC(=O)[C@@H]1C[C@@H](O)CN1C(=O)[C@H](C(C)C)N1Cc2ccccc2C1=O [compound 46]
  TUBE1-reactivity (poly-Ub p38δ): increased TUBE1-reactivity
